Measurements taken from patent US11890335B2, “ErbB peptide pharmaceutical and vaccine compositions and therapeutic uses thereof for cancer” (L2 Diagnostics, LLC, priority 2017, dated 2024).
“Also recorded” adds a separate entry of the source. *1 amine or outer side, *2 acyl side, *3 side chain or, on linkers, in order; H or OH if unused. Where a SMILES comes first, the peptide text is derived from it. [ ]: non-standard residue; d: D form. βAsp = O=C(O)[C@H](CC(=O)[*:2])N[*:1]

Key:
[1] = test system: TUBO-EGFR cells; test: In vivo tumor assay, TUBO-EGFR cells s.c. in immunized mice; conditions: immunized Balb/c mice, days 11, 13 and 18
Text: (§1) Female Balb/c or female C57BL/6 mice, 6-8 weeks old, were obtained from the National Cancer Institute. All mice were housed at the Yale University School of Medicine Animal Facility. All protocols were consistent with accepted guidelines of the National Institutes of Health for the care and use of laboratory animals as well as approved by the Yale University Institutional Animal Care and Use Committee. For the generation of antibody, three to five Balb/c or C57BL/6 mice per group were immunized intraperitoneally and subcutaneously in one footpad with 100 μg of peptide emulsified 1:1 of PBS and complete Freund's adjuvant (CFA). Twenty-one days later, mice were boosted intraperitoneally and subcutaneously in the other footpad with 100 μg of immunizing peptide emulsified in incomplete Freund's adjuvant (IFA). Sera were collected via retro-orbital bleed at day 28 for antibody analyses. For T cell assays, mice were immunized by the same route of administration with 100 μg of peptide emulsified 1:1 in CFA. […]
Female Balb/c mice were immunized with either Asp or isoAsp EGFR p580 as described above for the generation of antibody. […] Tumor volume was calculated by measuring three orthogonal axes (a, b, and c) with digital calipers, with the tumor volume=abc/2 (Cho H S et al. (2003) Nature 421:756-60).

[2] = molecular target: T1, recombinant HER3 extracellular domain (Homo sapiens, UniProt P21860); test: ELISA, immune serum binding to recombinant HER3 extracellular domain; conditions: serum 1:100 dilution
T1 construct: Recombinant human HER3 extracellular domain was purchased from R&D Systems; purchased R&D Systems
Protocol: (§2) Polystyrene microtiter plates (Nunc) were coated with either 50 μg/ml peptide or 1 μg of rHER2 or rHER3 extracellular domains in buffer (0.05 M carbonate-bicarbonate buffer, pH 9.6; Sigma) and incubated overnight at 4° C. Wells were washed, blocked with PBS containing 3% bovine serum albumin (BSA) followed by the addition of serum samples (1:100 dilution) for 2 h at room temperature. Alkaline phosphatase conjugated-goat anti-mouse IgG antibody (Southern Biotech) was added to the wells at a 1:1000 dilution and incubated at room temperature for 1.5 h. Wells were washed one last time, and developed by the addition of the substrate p-nitrophenyl phosphate (Sigma). Wells were read on a SpectraMax 450 ELISA reader (Molecular Dynamics) at 405 nm.

[3] = molecular target: T2, HER2 p585 peptide (Homo sapiens, UniProt P04626); test: ELISA, immune serum binding to HER2 p585 peptide; conditions: sera from Balb/c mice
T2 construct: host or cells: chemical synthesis
Protocol: as §2

[4] = test system: T cells from EGFR p580 immunized mice; test: T cell proliferation assay, 3H-thymidine; type: cell-based; conditions: lymph node cells of immunized C57BL/6 mice re-stimulated 72 h with peptide
[5] = test system: human EGFR on A431 cells; test: Flow cytometry, binding to A431 cells; conditions: for Staining of A431 cells by flow cytometry: serum 1:100 or cetuximab 5 μg/ml
Protocol: (§3) Cells (10^5 cells/sample) were stained with a 1:100 dilution of serum in PBS with 0.1% BSA and 0.05% sodium azide for 1 h at 4° C. Cells were washed and incubated with a 1:100 dilution of either anti-mouse IgG fluorescein isothiocyanate (FITC; Sigma) or anti-human IgG AlexaFluor 488 (Molecular Probes, Invitrogen) for 1 h at 4° C. Some samples were further stained using anti-FITC AlexaFluor 488. Cells were washed and fixed in PBS+1% paraformaldehyde. Cells were analyzed on a FACSCalibur (BD Biosciences) with FlowJo software (Tree Star). Controls included unstained cells and cells stained with secondary antibody alone.

[6] = molecular target: T3, HER4 p578 peptide (Homo sapiens, UniProt Q15303); test: ELISA, immune serum binding to HER4 p578 peptide; conditions: data not shown
T3 construct: host or cells: chemical synthesis
Protocol: as §2

[7] = molecular target: T4, recombinant HER2 extracellular domain (Homo sapiens, UniProt P04626); test: ELISA, immune serum binding to recombinant HER2 extracellular domain; conditions: serum 1:100 dilution
T4 construct: The extracellular domain of HER2 was a kind gift of Dr. Daniel Leahy
Protocol: as §2

[8] = test system: MDA-MB-453 cells (HER2-positive, EGFR-negative); test: Flow cytometry, binding to MDA-MB-453 cells; design: species or system human; conditions: serum 1:100 or antibody 5 μg/ml
Protocol: as §3

[9] = molecular target: T5, HER3 p574 peptide (Homo sapiens, UniProt P21860); test: ELISA, immune serum binding to HER3 p574 peptide; conditions: sera from Balb/c mice
T5 construct: host or cells: chemical synthesis
Protocol: as §2

[10] = test system: EGFR peptides; test: ELISA, antisera against the panel of EGFR peptides; type: binding, murine (mu) and human (hu); conditions: 100 μg peptide in CFA, boost in IFA, sera day 28
Text: as §1
Polystyrene microtiter plates (Nunc) were coated with either 50 μg/ml peptide or 1 μg of rHER2 or rHER3 extracellular domains in buffer (0.05 M carbonate-bicarbonate buffer, pH 9.6; Sigma) and incubated overnight at 4° C. […] Wells were read on a SpectraMax 450 ELISA reader (Molecular Dynamics) at 405 nm.

[11] = test system: MDA-MB-453 cells; test: ADCC assay with human PBMC, MDA-MB-453 cells; type: cell-based; conditions: 1:25 serum or 20 μg/ml antibody, human PBMC 50:1, 4 h, compared to rituximab
Protocol: (§4) All experimental sera were heat-inactivated (56° C., 30 min) prior to use. A431 or MDA-MB-453 cells were incubated with a 1:25 dilution of heat-inactivated sera or control antibody (20 μg/ml) 30 min at 37° C. in 96-well U bottom plates. Freshly isolated human peripheral blood mononuclear cells (PBMC) from healthy donors were incubated with antibody coated target cells at a 50:1 effector to target ratio for 4 h at 37° C. Fifty microliters of each cell culture supernatant was then assayed for lactate dehydrogenase released from dead cells using the CytoTox96 Non-Radioactive Cytotoxicity Assay (Promega) per manufacturer's instructions. Percent cytotoxicity was calculated as [(experimental-effector spontaneous-target spontaneous)/(target maximum-target spontaneous)]×100.

[12] = mouse, in vivo
[13] = test system: A431 cells; test: ADCC assay with human PBMC, A431 cells; type: cell-based; conditions: 1:25 serum or 20 μg/ml antibody, human PBMC 50:1, 4 h
Protocol: as §4

[14] = test system: MDA-MB-453 cells; conditions: control antibodies, 10-40 mg/ml concentrations tested
Protocol: Cells were incubated for three days with 1:25 dilutions of sera from either Asp or isoAsp p580 immunized Balb/c mice. Cell proliferation was measured by 3H-thymidine incorporation.

[15] = test system: A431 cells; conditions: isotype control 10 μg/ml, data not shown
[16] = molecular target: native HER2 (Homo sapiens, UniProt P04626); conditions: Garrett J T et al. (2007); cited from earlier work

T1 sequence (P21860 20-643 limits assumed): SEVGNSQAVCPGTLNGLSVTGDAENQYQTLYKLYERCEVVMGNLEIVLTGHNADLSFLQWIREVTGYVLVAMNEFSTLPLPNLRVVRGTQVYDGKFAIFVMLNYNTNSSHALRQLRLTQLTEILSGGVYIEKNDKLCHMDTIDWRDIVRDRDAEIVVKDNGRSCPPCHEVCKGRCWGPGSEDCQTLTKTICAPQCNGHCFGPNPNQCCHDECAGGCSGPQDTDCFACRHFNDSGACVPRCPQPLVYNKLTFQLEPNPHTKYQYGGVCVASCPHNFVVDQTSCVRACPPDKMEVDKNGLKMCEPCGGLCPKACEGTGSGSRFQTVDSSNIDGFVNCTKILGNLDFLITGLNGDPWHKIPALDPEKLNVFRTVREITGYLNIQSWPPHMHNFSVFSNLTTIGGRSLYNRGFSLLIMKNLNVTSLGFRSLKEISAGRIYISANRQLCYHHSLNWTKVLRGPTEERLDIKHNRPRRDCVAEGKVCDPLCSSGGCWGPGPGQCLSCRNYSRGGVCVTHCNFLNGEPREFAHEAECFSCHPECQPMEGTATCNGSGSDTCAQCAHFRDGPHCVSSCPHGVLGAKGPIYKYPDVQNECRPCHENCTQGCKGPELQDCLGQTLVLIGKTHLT

## CC[C@H](C)[C@H](N)C(=O)N[C@@H](CCC(N)=O)C(=O)N[C@@H](CS)C(=O)N[C@@H](C)C(=O)N[C@@H](Cc1c[nH]cn1)C(=O)N[C@@H](Cc1ccc(O)cc1)C(=O)N[C@H](C(=O)N[C@@H](CC(=O)O)C(=O)NCC(=O)N1CCC[C@H]1C(=O)N[C@@H](Cc1c[nH]cn1)C(=O)N[C@@H](CS)C(=O)N[C@H](C(=O)N[C@@H](CCCCN)C(=O)N[C@H](C(=O)N[C@@H](CS)C(=O)N1CCC[C@H]1C(=O)N[C@@H](C)C(=O)NCC(=O)O)[C@@H](C)O)C(C)C)[C@@H](C)CC [Asp EGFR p580] (H-IQCAHYIDGPHCVKTCPAG-OH; N-terminus and C-terminus assumed)
[1]
  Tumor size versus adjuvant alone (PBS-CFA): significantly smaller tumors
[2]
  Immune serum binding to HER3 extracellular domain by ELISA: bound
[3]
  Immune serum binding to HER2 p585 peptide by ELISA: bound
[4]
  T cell response to Asp and iso-Asp p580: strong T cell responses to both Asp and iso-Asp p580
[5]
  Staining of A431 cells by flow cytometry: stained A431 cells above that seen with pre-immune sera
[6]
  Immune serum binding to homologous HER4 p578 peptide: neither Asp nor isoAsp EGFR p580 antisera bound; also recorded: neither the Asp nor iso-Asp EGFR p580 antiserum bound
[7]
  Immune serum binding to HER2 extracellular domain by ELISA: bound
[8]
  Binding to MDA-MB-453 cells by flow cytometry: showed affinity
[9]
  Immune serum binding to HER3 p574 peptide by ELISA: bound
[10]
  Antibodies elicited by immunization, binding to EGFR peptides by ELISA: generated antibodies against Asp and iso-Asp p580, as well as Asp and iso-Asp p572 and Asp p596

## CC[C@H](C)[C@H](N)C(=O)N[C@@H](CCC(N)=O)C(=O)N[C@@H](CS)C(=O)N[C@@H](C)C(=O)N[C@@H](Cc1c[nH]cn1)C(=O)N[C@@H](Cc1ccc(O)cc1)C(=O)N[C@H](C(=O)N[C@@H](CC(=O)NCC(=O)N1CCC[C@H]1C(=O)N[C@@H](Cc1c[nH]cn1)C(=O)N[C@@H](CS)C(=O)N[C@H](C(=O)N[C@@H](CCCCN)C(=O)N[C@H](C(=O)N[C@@H](CS)C(=O)N1CCC[C@H]1C(=O)N[C@@H](C)C(=O)NCC(=O)O)[C@@H](C)O)C(C)C)C(=O)O)[C@@H](C)CC [isoAsp EGFR p580] (H-IQCAHYI[βAsp]GPHCVKTCPAG-OH; N-terminus and C-terminus assumed)
[1]
  Tumor size versus adjuvant alone (PBS-CFA): significantly smaller tumors
[2]
  Immune serum binding to HER3 extracellular domain by ELISA: bound
[3]
  Immune serum binding to HER2 p585 peptide by ELISA: bound
[4]
  T cell response to Asp and iso-Asp p580: more robust response
[5]; flow cytometry
  Binding to A431 cells relative to Asp-isoform counterpart: ~10 fold
[5]; immune sera, flow cytometry
  Shift in staining intensity of A431 cells: > 10 fold
[6]
  Immune serum binding to homologous HER4 p578 peptide: neither Asp nor isoAsp EGFR p580 antisera bound
[6]; listed as iso-Asp EGFR p580
  Immune serum binding to homologous HER4 p578 peptide: neither the Asp nor iso-Asp EGFR p580 antiserum bound
[7]
  Immune serum binding to HER2 extracellular domain by ELISA: bound
[8]
  Binding to MDA-MB-453 cells by flow cytometry: showed affinity
[9]
  Immune serum binding to HER3 p574 peptide by ELISA: bound
[10]
  Antibodies elicited by immunization, binding to EGFR peptides by ELISA: sera bound strongly to both isoforms of p572 and Asp 596

## IQCAHYIDGPHCVKTCPAG [EGFR p580, EGFR peptide p580-598, isoform not specified at the place (Asp and iso-Asp isoforms)]
[11]
  ADCC killing of MDA-MB-453 cells: significantly induced ADCC killing
[12]
  Autoimmunity, fur loss or skin pathology in immunized mice: no signs of aberrant tissue autoimmunity
[5]
  Staining of A431 cells by flow cytometry: bind to the EGFR overexpressing human A431 epidermoid carcinoma cell line at an epitope distinct from that recognized by cetuximab
[13]
  ADCC killing of A431 cells: exhibited significant killing

## Rituximab: human anti-CD20 monoclonal antibody
[14]
  MDA-MB-453 cell growth inhibition: failed to inhibit
[15]
  A431 cell growth inhibition: did not inhibit any A431 growth

## VACAHYKDPPFCVA [p585-598 HER2 peptide]
[16]
  Elicited antibodies binding to native HER2: failed to elicit antibodies that bound strongly to native HER2
